Experimental findings from USRE49351E1, “Cytoprotective agent” (Biogen MA Inc., priority 2009, dated 2023) are described below.

A short description of experiment [1]: modified H-ORAC (mH-ORAC) assay. As to conditions: acetone solution, acetone final concentration 1.25%. It counts as biochemical. How it is done:
(§1) To study the free radical scavenging activity of a triprenyl phenol compound, the following H-ORAC (hydrophilic oxygen radical absorbance capacity) assay, and modified H-ORAC (mH-ORAC) assay were conducted.
(§2) SMTP compounds evaluated by H-ORAC were used respectively in a form of a sodium salt aqueous solution, and the compounds evaluated by mH-ORAC were used respectively in a form of an acetone solution.
(§3) In H-ORAC a test compound was diluted appropriately with a buffer solution (75 mM phosphate buffer solution, pH 7.4) and used for measurement. In mH-ORAC a test compound was diluted appropriately by a 50% (v/v) acetone solution, prepared by diluting an acetone solution with water, to prepare a solution of 40-fold the final concentration. […] As for the reference material Trolox, 500 μM/buffer solution was diluted appropriately with a buffer solution.
(§4) To a 96-well microplate (transparent, flat bottom, black wall) 50 μL of a test compound solution or a Trolox solution was placed, and additionally 100 μL of a fluorescein 140 nM/buffer solution as a fluorescent substance was added (final concentration 70 nM), followed by incubation at 37° C. for […].
(§5) As a free radical generator, 50 μL of a 48 mM/buffer solution of 2,2′-azobis(amidinopropane)dihydrochloride was added (final concentration 12 mM), and fluorescence intensity at fluorescence wavelength of 535 nm with excitation wavelength of 485 nm was measured at 2 min intervals for 90 min. The calibration curve was prepared between the Trolox final concentrations of 5 to 15 μM. The measurement was conducted by changing the concentration with n=3, and plotted on a diagram with time on the abscissa and the fluorescence intensity on the ordinate. Therewith evaluation was made using the value obtained by reducing the area under the curve for the blank from the area under the curve for the sample. The result was expressed as an equivalent to Trolox.

The nature of experiment [2]: H-ORAC (hydrophilic oxygen radical absorbance capacity) assay. In kind it is biochemical. Particulars: sodium salt aqueous solution, phosphate buffer pH 7.4. As for the experimental part:
as §1, §2, §3, §4, §5

In experiment [3] the test system is Mongolian gerbil cerebral infarction model. Description: Mongolian gerbil cerebral infarction model (acetic acid-induced thrombus): infarction area percentage and neurological symptom. It counts as in vivo. As to conditions: mean ± SE, n=6; for Infarction area: evaluated 24 h; for Neurological scores: score 0-4 at 24 h. The source says: Anesthesia was induced to a male Mongolian gerbil (body weight 55 to 65 g) by inhalation of 5% isoflurane (trade name Escain, Mylan Inc.), and maintained with 1 to 1.5% isoflurane. The Mongolian gerbil was fixed in a dorsal position, and the neck was dehaired and then disinfected with 70% ethanol. After median incision of the neck, the right common carotid artery was detached, clamped to block the blood flow temporarily, and coated with 100% acetic acid by 30 reciprocating motions so as to produce a thrombus. The blood vessel was reopened after 10 min of the blockage of the blood flow to transfer the thrombus by the blood stream into the brain to make it ischemic and generate cerebral infarction. The operating field was closed with an instant adhesive (trade name Aron Alpha (Krazy Glue), Toagosei Co., Ltd.) and disinfected with 70% ethanol.
Twenty four hours after the initiation of the operation neurological symptoms were observed as an indicator for cerebral infarction. Many types of neurological symptoms specific to cerebral infarction, such as extension of a hindlimb or circling to one direction, have been reported. Applying a modified evaluation method of the method proposed by Longa, et al. (Stroke 1989; 20:84-91) postoperative neurological symptoms were evaluated as per: no deficit, 0; extension of limb, 1; circling to one direction, 2; incline posture, 3; diminished motion, 4.
With respect to statistical analysis, for multiple comparisons was conducted firstly one-way analysis of variance (ANOVA) and then a Bonferroni test was conducted, if significant difference is detected. Significant difference was positively recognized with significance level 5% (P<0.05). All the results are expressed in mean±standard error.
After the evaluation of neurological symptoms according to the above method, the animal was decapitated under anesthesia with isoflurane. The cranial bone was exfoliated of skin and opened, and, after scission of optic nerve, the brain was extirpated and dipped in a physiological saline solution to remove attached body hairs, etc. The extirpated brain was placed in a brain matrix (RBM-1000C, ASI Instruments) to carry out coronal slicing from the frontal pole at thickness of 2 mm. The slices were dipped in 2% 2,3,5-triphenyl-2H-tetrazolium chloride (TTC), and incubated for staining at 37° C. for 30 min in a CO2 incubator. The colorless TTC is reduced by hydrogen liberated by the action of dehydrogenase contained in a normal cell converting to dark red colored water-insoluble 1,3,5-triphenylformazan (TPF), so that the normal cell is stained. Unstained area (white area) was defined as an infarction area. Meanwhile, the corpus callosum, which is commissural fibers connecting the right and left cerebral hemispheres, is not stained and is white, and therefore image processing for the analyses as described below was conducted excluding the corpus callosum.
After staining images of the brain slices were taken by a digital camera under a stereoscopic microscope. For analysis of the infarction area percentage, an image analysis software Image J (Version 1.4) was used. Full, excluding the corpus callosum, images of the taken 2nd, 3rd, and 4th brain slice images were converted to grayscale. From the grayscale images a histogram for the whole brain as the object scope was obtained showing in the ordinate the frequency of occurrence (frequency) at certain brightness, and showing in the abscissa the brightness (0 to 255). The sum from 0 to 255 was defined as the area size of the whole brain, and the sum from 160 to 219 was defined as the area size of the infarction area. Then the infarction area percentage was determined according to the following formula using the total area size of the infarction areas and the total area size of the whole brain, of the 3 brain slice images. Statistical analysis was conducted as above. […]

Where [4] appears, read: 1 mg/kg i.v., administration initiated 0 hr after ischemia.
[5] abbreviates: 1 mg/kg i.v., administration initiated 1 hr after ischemia.
[6] abbreviates: 10 mg/kg i.v., administration initiated 1 hr after ischemia.
Setting [7] is: 3 mg/kg i.v., administration initiated 0 hr after ischemia.
[8] abbreviates: 3 mg/kg i.v., administration initiated 1 hr after ischemia.
[9] abbreviates: 3 mg/kg i.v., administration initiated 3 hr after ischemia.

Counter-ions that a name gives are not always drawn.

Turning to `CC(C)=CCC/C(C)=C/CC[C@]1(C)Oc2c(c(O)cc3c2CNC3=O)C[C@@H]1O` [SMTP-0], the “free radical scavenging activity, Trolox equivalent” value (shortened to “free radical scavenging activity”) in experiment [1] worked out at 7.76 ± 0.36 molTE/mol.

Take `CC(C)=CCC/C(C)=C/CC[C@]1(C)Oc2c(c(O)cc3c2CN(CCO)C3=O)C[C@@H]1O` [SMTP-1]: in experiment [1], the “free radical scavenging activity” value came to 4.35 ± 0.55 molTE/mol.

For the molecule `CC(C)=CCC/C(C)=C/CCC1(C)Oc2c(c(O)cc3c2CN(C(Cc2ccccc2)C(=O)O)C3=O)CC1O` (stereo not drawn) [SMTP-4], the “free radical scavenging activity” value in experiment [2] worked out at 1.79 ± 0.02 molTE/mol.

Consider `CC(C)=CCC/C(C)=C/CCC1(C)Oc2c(c(O)cc3c2CN([C@H](CC(C)C)C(=O)O)C3=O)CC1O` (stereo partly drawn) [SMTP-5D], for which the “free radical scavenging activity” value in experiment [2] is recorded as 1.71 ± 0.20 molTE/mol.

As for `CC(C)=CCCC(C)=CCCC1(C)Oc2c(c(O)cc3c2CN(CCCCC(C(=O)O)N2Cc4c(cc(O)c5c4OC(C)(CCC=C(C)CCC=C(C)C)C(O)C5)C2=O)C3=O)CC1O` (stereo not drawn) [SMTP-8], the “free radical scavenging activity” value in experiment [1] stood at 1.69 ± 0.14 molTE/mol.

`CSCC[C@@H](C(=O)O)N1Cc2c(cc(O)c3c2O[C@@](C)(CCC=C(C)CCC=C(C)C)[C@@H](O)C3)C1=O` [SMTP-13]: the “free radical scavenging activity” value in experiment [2] is listed as 3.07 ± 0.51 molTE/mol.

In the case of `CC(C)=CCCC(C)=CCC[C@]1(C)Oc2c(c(O)cc3c2CN([C@@H](Cc2ccc(O)cc2)C(=O)O)C3=O)C[C@@H]1O` [SMTP-14], the “free radical scavenging activity” value in experiment [2] was 4.43 ± 0.49 molTE/mol.

For `CC(C)=CCCC(C)=CCC[C@]1(C)Oc2c(c(O)cc3c2CN(c2ccc(S(=O)(=O)O)cc2)C3=O)C[C@@H]1O` [SMTP-42], the “free radical scavenging activity” value in experiment [2] is recorded as 3.28 ± 0.25 molTE/mol.

In the case of `CC1CNc2c(cccc2S(=O)(=O)N[C@@H](CCCNC(=N)N)C(=O)N2CC[C@@H](C)C[C@@H]2C(=O)O)C1` (stereo partly drawn) [argatroban], the Infarction area in experiment [3] (setting [4]) worked out at 10.0 ± 2.66%; in experiment [3] (setting [5]), 12.1 ± 2.46%; in experiment [3] (setting [6]), 11.5 ± 2.57%. Also, the results for the Neurological scores in experiment [3] (setting [4]), in experiment [3] (setting [5]) and in experiment [3] (setting [6]) were 2.33 ± 0.61, 2.50 ± 0.50 and 2.50 ± 0.56, respectively.

Consider `CC1=NN(c2ccccc2)C(=O)C1` [edaravone], for which the Infarction area in experiment [3] (setting [5]) is recorded as 12.8 ± 2.87%; in experiment [3] (setting [7]), 9.95 ± 3.22%; in experiment [3] (setting [8]), 8.29 ± 1.61 %; in experiment [3] (setting [9]), 12.3 ± 5.59%; in experiment [3] (setting [6]), 9.29 ± 2.17%. The Neurological scores in experiment [3] (setting [5]) stood at 3.17 ± 0.17; in experiment [3] (setting [7]), 1.50 ± 0.67; in experiment [3] (setting [8]) it was 1.50 ± 0.67; in experiment [3] (setting [9]) it was 2.50 ± 0.56; in experiment [3] (setting [6]), 1.83 ± 0.65.

As for `Clc1ccccc1CN1CCc2sccc2C1` [ticlopidine HCl], the Infarction area turned out to be 8.83 ± 1.73% in experiment [3] (setting [4]), 13.1 ± 3.89% in experiment [3] (setting [5]) and 9.84 ± 1.81% in experiment [3] (setting [6]). Also, the Neurological scores in experiment [3] (setting [4]) is listed as 2.33 ± 0.42; in experiment [3] (setting [5]), 2.67 ± 0.56; in experiment [3] (setting [6]), 2.33 ± 0.42.
